Read-outs that look alike come from different tables or passages of the source.
Columns and labels:
A2058 melanoma cells = test: Reversibility of inhibition of tumor cell motility; type: cell-based, human; settings: for activity at 1 µg/mL / activity at 5 µg/mL: Homo sapiens, read-out: Motility (% of control)
Experimental: The cell motility assay has been described. See, Stracke et al., Biochem. Biophys. Res. Comm., 146:339-345 (1987). Cells from the A2058 human melanoma line which was maintained in subconfluent culture were harvested with trypsin-EDTA, and were allowed to recover for 1 hr at room temperature. Cells from the 5R H-ras transformed (diploid) rat embryo fibroblast line were harvested with 2 mM EDTA in PBS without divalent cations. Cells were resuspended in serum-free media containing 0.1% BSA. This DMEM/0.1% BSA was used as the control for all subsequent assays. The assays were performed in triplicate using a 48-well chemotaxis chamber with 8μ Nucleopore, type IV collagen-coated filters. The chambers were incubated at 37° C. for 4 hr, stained and placed onto glass slides with the original cell side up so that the cell pellet could be wiped from the surface. Cells that had migrated through the pores were trapped between glass and membrane and could be quantitated by laser densitometry.
Reversibility of cell motility which had been inhibited by compound 1 was determined by removing the compound from the incubation media. Thus, A2058 melanoma cells were cultured for 24 hr in standard media (DMEM/10% FCS), washed twice with saline, and cultured with DMEM/10% FCS with (+) or without (-) compound 1 for 24 hr. Cells were then washed and the treatments were reversed. The resulting cells are classified as "treated" (±, run as a control to test cell response following the incubation and washing steps), "washout" (±, run to evaluate reversibility), and "control". Control cells were washed and fed with standard media alone at each change point. Table E provides the results expressed as a percent of control cell motility at two concentrations of compound 1.

[1] = test system: 5R ras-transfected rat embryo fibroblast cell line; test: Experimental pulmonary metastasis, tumor cells pretreated in vitro; type: in vivo, nude mice; settings: cells treated overnight, 1-10 μM; 10 d
Experimental: This example illustrates the effect of selected compounds on the development of experimental pulmonary metastases, when the tumor cells are first incubated with the compound in vitro and subsequently injected into the tail vein of nude mice. In this example, both the 5R ras-transfected rat embryo fibroblast cell line and the HT-29 human colon cancer cell line were evaluated.
The 5R ras-transfected rat embryo fibroblast cell line forms confluent pulmonary metastases within 2-3 weeks after inoculation. For the experimental metastasis assay, 5R cells were treated in culture overnight with the test compounds (1-10 μM). After culture, the cells were harvested, washed and injected into the tail vein of six-week old nude mice. After 10 d, the mice were humanely sacrificed and the lungs were removed and fixed in Bouin's solution. The visible pulmonary metastases were counted.

CHOm5 cells [2] = test: Carbachol-stimulated generation of inositol phosphates; type: cell-based, Chinese hamster; settings: concentrations above 10 μM
Experimental: This example illustrates the effect of compound 1 on the generation and release of phosphatidyl inositol from either A2058 cells (stimulated with autocrine motility factor) or CHOm5 cells (stimulated with carbachol).
A second assay utilized CHO cells which were transfected with and stably expressed the m5 subtype of the muscarinic acetylcholine receptor.
CHOm5 cells were incubated with [^3 H]inositol (0.5 μCi/well) for 18 to 24 hr. Before the addition of test compounds, the cells were washed twice with 250 μL of serum-free media supplemented with 20 mM HEPES and 10 mM lithium chloride. The test compounds were added in a final volume of 250 μL and the reaction was allowed to proceed for 15 min at 37° C. The reaction was stopped by the addition of 250 μL of an ice-cold solution containing 1M KOH, 18 mM Na2 B4 O7, 3.8 mM EDTA and 7.6 mM NaOH. The stop solution was neutralized immediately with the addition of 250 μL of a solution containing 7.5% HCl. Released inositol phosphates were separated by anion exchange chromatography.

CHOm5 cells [3] = test: Calcium ionophore A23187-stimulated 45Ca2+ influx; type: cell-based, Chinese hamster; settings: Cricetulus griseus; FIG. 13, A23187
Experimental: Calcium influx was determined using two methods. The first method involved the use of ^45 Ca^2+, while the second method utilized a fluorescent intracellular calcium chelator, Fura-2. The method using Fura-2 is semi-quantitative and is preferred for kinetic analysis and screening whereas the ^45 Ca^2+ method is quantitative.
CHOm5 cells in monolayer culture were washed free of serum-containing media and incubated with either carbachol or the calcium ionophore A23187 (from Molecular Probes, Eugene, Oreg., USA) in the presence of ^45 Ca^2+ and defined buffer (E2 medium with 0.1 mM MgCl2 and 1.0 mM CaCl2). After incubation for 5 min, the radioactive buffer was rapidly and repeatedly washed off with media containing LaCl3, a competitor of calcium efflux. The cell monolayer was solubilized and the calcium uptake was determined by scintillation counting.

OVCAR3 cells [4] = test: Type IV collagen-stimulated motility; type: cell-based, human; settings: data not shown
T24 (EJ) bladder = test: Growth of tumor cell lines; type: cell-based; settings: T-24 human bladder cancer with activated H-ras
Experimental: In one study, the cells were continuously exposed to 20 μM compound 1, and growth inhibition was measured. In a second study, cell lines which only grow in suspension were plated in 24 well plates (50,000 cells/well) and were incubated with increasing concentrations of compound 1. After 72 hr in culture, the cells were harvested, centrifuged,resuspended in a small volume. The number of remaining cells and their viability was determined using a hemocytometer.

5R cells = test: Oral treatment, prevention of experimental metastasis; type: in vivo, nude mice
Experimental: Finally, compound 1 was tested for efficacy in prevention of the formation and growth of experimental metastases. Oral administration of compound 1 or PEG-400 vehicle to nude mice was carried out for 5 days. On day 6, untreated 5R cells (10^4) were introduced into the animals by tail vein inoculation. The animals were then randomized into four groups. Two groups of animals which had received only vehicle were subsequently treated with either vehicle (PEG/PEG) or 1 (PEG/1). The other two groups which had been treated with 1 were similarly treated post-inoculation with either vehicle (1/PEG) or 1 (1/1). Treatments were continued for 10 d, after which the lungs were removed and the pulmonary metastases were counted. Histologic confirmation of the fibrosarcoma due to the 5R cells was obtained. […] No toxicity was noted during treatment or at necropsy.

[5] = test system: signal transduction pathways (calcium influx, release of arachidonic acid, generation of inositol phosphates); settings: cited from earlier work
OVCAR3 cells [6] = test: Colony formation (soft agar); type: cell-based; settings: Homo sapiens, OVCAR-3
Experimental: Colony formation: Compound 1 was evaluated at three concentrations for inhibition of colony formation in both the A2058 and OVCAR3 cell lines. Colony number was determined in triplicate and compared to the vehicle control run on each 24 well plate to provide a percent. Colonies greater than 60 cells were counted at 100× under phase contrast. […] In a second study, selected compounds were evaluated for their effect on density-independent growth of the A2058 cell line in soft agar. Percent inhibition was determined over triplicate experiments involving three log molar concentrations of the test compound.

Compound: NC(=O)c1nnn(Cc2cc(Cl)c(C(=O)c3ccc(Cl)cc3)c(Cl)c2)c1N [Compound 1]
- activity at 1 µg/mL (A2058 melanoma cells; A2058, 1 μg/mL (+/-)): 97%
- activity at 1 µg/mL (A2058 melanoma cells; A2058, 1 μg/mL (-/+)): 59%
- activity at 5 µg/mL (A2058 melanoma cells; A2058, 5 μg/mL (+/-)): 94%
- activity at 5 µg/mL (A2058 melanoma cells; A2058, 5 μg/mL (-/+)): 27%
- reversibility of motility inhibition (A2058 melanoma cells; removal of the compound from the culture medium): could be reversed by removal of the compound from the culture medium
- inhibition of pulmonary colonization [1]: 95%
- inhibition of carbachol-stimulated generation of inositol phosphates (CHOm5 cells [2]): partially inhibited
- IC50 (CHOm5 cells [3]): 359 ± 11 nM
- motility due to type IV collagen stimulation (OVCAR3 cells [4]): inhibited motility
- inhibition of proliferation (T24 (EJ) bladder): inhibited proliferation
- toxicity (5R cells; during treatment or at necropsy): No toxicity
- metastatic colonization (5R cells; given prior to tumor cell injection): prevented metastatic colonization as effectively as when 1 was administered only after tumor cell inoculation or when given continuously
- number of pulmonary metastases (5R cells; treatment prior to, post, or prior to and post inoculation): statistically significantly inhibited
- inhibition of selected signal transduction pathways [5]: novel inhibitor of selected signal transduction pathways
- inhibition at 2 µM (OVCAR3 cells [6]): > 70%
